Assay results from patent US8470765B2, “Polypeptides and antibacterial or antiseptic use of same” (AnGes MG, Inc., priority 2009, dated 2013).
≈ marks a conversion by molar mass, not a printed value.

How the values were obtained:
[1] = system: Acinetobacter baumanni JCM6841; settings: Table 4; two tests, first/second value where not identical
[2] = system: Fusobacterium nucleatum JCM 11025; assay: microbe, parasite or virus in culture; settings: JCM11025, read-out: MIC Fusobacterium nucleatum
[3] = system: Actinobacillus actinomycetemcomitans JCM2434; assay: microbe, parasite or virus in culture; settings: Aggregatibacter actinomycetemcomitans, JCM2434, read-out: MIC Actinobacillus actinomycetemcomitans
[4] = system: Micrococcus luteus NBRC13867; assay: microbe, parasite or virus in culture; settings: NBRC13867, read-out: MIC Micrococcus luteus
[5] = system: Bacillus subtilis NBRC3134; assay: microbe, parasite or virus in culture; settings: NBRC3134, read-out: MIC Bacillus subtilis
[6] = system: Salmonella typhimurium JCM1652; assay: microbe, parasite or virus in culture; settings: Salmonella enterica, read-out: MIC Salmonella Typhimurium
[7] = system: Salmonella enteritidis IID 604; assay: microbe, parasite or virus in culture; settings: Salmonella enterica, read-out: MIC Salmonella Enteritidis
[8] = system: Streptococcus pyogenes JCM5674; assay: microbe, parasite or virus in culture; settings: JCM5674, read-out: MIC Streptococcus pyogenes
[9] = system: Bacteroides fragilis JCM 11019; assay: microbe, parasite or virus in culture; settings: JCM11019, read-out: MIC Bacteroides fragilis

For `O=C(N[C@H](CO)[C@H](O)c1ccc([N+](=O)[O-])cc1)C(Cl)Cl` [chloramphenicol], the “MIC Acinetobacter baumanni” value [1] was 16/32, the MIC [2] was 0.25 µg/mL (≈ 0.774 µM) and the MIC [3] was 0.5 µg/mL (≈ 1.55 µM). It also gave an MIC [4] of 1 µg/mL (≈ 3.09 µM), an MIC [5] of 4 µg/mL (≈ 12.4 µM) and an MIC [6] of 4 µg/mL (≈ 12.4 µM). It also gave an MIC [7] of 4 µg/mL (≈ 12.4 µM), an MIC [8] of 2 µg/mL (≈ 6.19 µM) and an MIC [9] of 1 µg/mL (≈ 3.09 µM).
